Activity calls are given as the source filed them.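 Rule for the calls: active = at least 15% inhibition at the top concentration together with an EC50 under 10 microM; inactive = the rest.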
test system: TALL-104 lytic granule exocytosis, LAMP-1 flow cytometry; experiment: potency against LAMP-1 externalization in TALL-104 – TALL-104 cells, flow cytometry, CherryPick01, dose response (AID 652101); conditions: stimulated with 1 µM thapsigargin, 50 nM PMA;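 for inhibition: 0% = stimulated DMSO control and 100% = unstimulated control wells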

Structure (SMILES) | EC50
CCN(CC)CCCNc1ccc(-c2nnc(-c3ccc(OCC(C)C)cc3)o2)cn1 | 2.35 µM
CCCS(=O)(=O)Nc1ccc(Nc2c3ccccc3nc3ccccc23)c(OC)c1 | 3.38 µM
CCCCn1c(=N)n(CC(=O)c2ccc(Br)s2)c2ccccc21 | 3.99 µM
Cc1ccc(-n2nnc3c(=O)oc4ccccc4c32)cc1 | 2.46 µM
O=C(CN1C(=O)/C(=C\c2cccc(Br)c2)Oc2ccccc21)NCCCN1CCOCC1 | 4.61 µM
CCOc1ccc2nc(C)cc(Nc3cccc([N+](=O)[O-])c3)c2c1 | 6.14 µM
O=C(OCc1ccccc1)N(CCCCN(CCCNCc1ccccc1)C(=O)OCc1ccccc1)CCCNCc1ccccc1 | 1.24 µM
COc1cccc(-c2cnc3c(NC(C)=O)cc(-c4ccsc4)cn23)c1 | 4.98 µM
CC1=NOC(=O)/C1=C/c1ccc(-c2ccc(Cl)cc2)o1 | 1.68 µM
CN1CCN(Cc2nc3ccccc3c(=O)n2Cc2nc(-c3ccc([N+](=O)[O-])cc3)cs2)CC1 | 6.16 µM
CCOc1ccc2[nH]c3c(N4CCc5ccccc5C4)ncnc3c2c1 | 4.91 µM
CC1=C(C)CS(=O)N(S(=O)(=O)c2ccc(Cl)cc2)C1 (stereo not given) | 2.88 µM
O=C(Cn1sc2ccccc2c1=O)Nc1ccc(F)cc1 | 5.2 µM
CCc1ccc(/C=C2/Sc3ccccc3N(CC(=O)NCCCN3CCOCC3)C2=O)cc1 | 5.17 µM
CN1Cc2c(N3CCOCC3)nc3sc(C(=O)c4ccc(Br)cc4)c(N)c3c2CC1(C)C | 3.23 µM
COc1cccc(-c2cnc3c(NC(C)=O)cc(-c4ccccc4OC)cn23)c1 | 5.23 µM
Cc1ccc(S(=O)(=O)n2ccc3c(OCCOCCNCc4ccc(F)cc4)cccc32)cc1 | 4.41 µM
COc1ccc(-n2sc3ccccc3c2=O)cc1 | 9 µM
O=c1c2ccccc2sn1-c1ccccc1 | 2.36 µM
COc1ccc(N2C(=O)CC(Sc3nnc(-c4ccccc4)o3)C2=O)cc1 (stereo not given) | 0.897 µM
CCOC(=O)c1c(NC(=O)COc2ccccc2OCC)sc2c1CC(C)(C)NC2(C)C | 1.2 µM
O=C1C=CC(=O)N1N(c1ccccc1)c1ccccc1 | 5.02 µM
O=C1Nc2ccc(Br)cc2/C1=C/C(=O)c1ccccc1 | 3.13 µM

Structure (SMILES) | EC50
CCCCC[C@@H](C)N1C[C@@H](COCc2ccccc2)Oc2cc(N3CC[C@H](N(C)C)C3)ccc2S1(=O)=O | 9.73 µM
COc1cccc(NC(=O)Nc2nc(-c3ccc(OC)c(OC)c3)cs2)c1 | 4.83 µM
Fc1ccc(/C=C\c2nccc3c2[nH]c2ccccc23)cc1 | 1.66 µM
O=S(=O)(Nc1cc(Sc2ncn[nH]2)c(O)c2ccccc12)c1ccccc1 | 2.91 µM
O=C1CC(Sc2nnnn2-c2ccccc2)C(=O)N1c1cccc(Cl)c1 (stereo not given) | 0.289 µM
N#Cc1c(Nc2ccccc2Cl)s[nH]c1=O | 3.82 µM
Cc1ccc(Nc2nc(NCc3ccco3)c3ccccc3n2)cc1 | 4.7 µM
Cc1cc(N2CCN(c3nc(-c4ccc([N+](=O)[O-])cc4)cs3)CC2)c2ccccc2n1 | 1.62 µM
COc1cccc(N2CCN(c3ncnc4c3[nH]c3ccc(F)cc34)CC2C)c1 (stereo not given) | 1.33 µM
O=S(=O)(c1ccccc1)c1nnn2c1nc(NC1CCN(Cc3ccccc3)CC1)c1cc(Cl)ccc12 | 4.22 µM
COc1ccccc1CNc1nc(NCc2ccc3occc3c2)c2sccc2n1 | 4.23 µM
Cc1cc(C)c2nc(C)cc(N/N=C/c3ccc(O)cc3)c2c1 | 4.47 µM
O=C(Nc1ccc(F)cc1)c1nc(S(=O)(=O)Cc2ccccc2)ncc1Cl | 0.344 µM
COc1ccccc1CNc1nc(NCc2ccc(C(C)C)cc2)c2sccc2n1 | 5.34 µM
COC(=O)c1c(NC(=O)c2nc3ccccc3s2)sc2c1CC(C)(C)NC2(C)C | 6.27 µM
CC1COCC(C)N1C1=C(Cl)C(=O)c2ccccc2C1=O (stereo not given) | 1.61 µM
O=C(Cn1sc2ccccc2c1=O)NC12CC3CC(CC(C3)C1)C2 | 5.13 µM
c1ccc(CNc2nc(NCC3CC3)nc3cc(-c4ccccc4)sc23)cc1 | 2.22 µM
O=c1c2ccccc2sn1-c1ccccc1F | 4.78 µM
CCCCCCSc1cccc(-c2nc3ccccn3c2NCc2ccccc2)c1 | 7.71 µM
CCOC(=O)c1cc(-c2csc(Nc3c(C)cc(C)cc3C)n2)on1 | 3.44 µM
CCCCC[C@@H](C)N1C[C@@H](COCc2ccccc2)Oc2cc(N3CC[C@@H](N(C)C)C3)ccc2S1(=O)=O | 4.57 µM

test system: not listed separately; experiment: as above; conditions: TALL-104 lytic granule exocytosis, LAMP-1 flow cytometry; at 15.1 µM (top of the series)

Structure (SMILES) | inhibition
CCOc1cccc(CNCCc2c(C)[nH]c3ccc(OC(F)(F)F)cc23)c1O | 82.3% (inactive)
Cc1cccc(C)c1-n1nnnc1C(CCc1ccccc1)N1CCC(n2c(=O)[nH]c3ccccc32)CC1 (stereo not given) | 94.8% (inactive)
CCOC(=O)[C@]12Cc3cc(Cl)ccc3[C@H]1N(C1CCCCC1)C(=O)c1cc(OC)ccc12 | 102% (inactive)

same assay, conditions: TALL-104 lytic granule exocytosis, LAMP-1 flow cytometry; at 15.1 µM (top of the series); stimulated with 1 µM thapsigargin, 50 nM PMA

Structure (SMILES) | inhibition
COc1ccc2nc3cc(Cl)ccc3c(Nc3ccc(O)c(CN4CCN(C)CC4)c3)c2c1 | 66.6% (inactive)
Cn1sc(=O)c2cc(S(=O)(=O)NC3CC3)ccc21 | 103% (inactive)
CCOC(=O)c1c(C)oc2c1c(C(c1cccnc1)N1CCOCC1)c(O)c1ccccc12 (stereo not given) | 95% (inactive)
Cc1ccc(-c2nn(-c3ccccc3)cc2CN(Cc2ccccc2)C(=O)c2ccco2)o1 | 105% (inactive)
O=C(COC(=O)[C@H](Cc1c[nH]c2ccccc12)NC(=O)c1ccc(Cl)cc1)Nc1ccc2c(c1)OCO2 | 108% (inactive)
CC(=O)Nc1ccc2c(=O)n(-c3ccccc3)sc2c1 | 67.8% (inactive)
COc1ccc(-c2cc(NC(C)=O)c3ncc(-c4ccccc4)n3c2)c(OC)c1 | 106% (inactive)
CCN(CC)CCOC(=O)c1ccc(N/C=C(/C#N)c2nc(-c3ccc(OC)cc3)cs2)cc1 | 56.9% (inactive)
Cc1ccc(-c2nn(-c3ccccc3)cc2CNCc2ccccc2)cc1 | 99.5% (inactive)
O=C(CCN1CCc2ccccc2CC1)c1ccc2c(c1)OCCO2 | 73.6% (inactive)
COC(=O)[C@]12CCCCC=C1N(Cc1cccc3ccccc13)C(=O)[C@H](CC(=O)NCc1ccc(OC)c(OC)c1)C2 | 108% (inactive)
CCOC(=O)c1c(NC(C)=O)sc2c(OCC(O)CN(CC)CC)c(Br)ccc12 (stereo not given) | 88.2% (inactive)
Cc1ccc2nc(-c3ccc(N4C(=O)CC(N5CCN(CCO)CC5)C4=O)cc3)sc2c1 (stereo not given) | 83.1% (inactive)
CCOC(=O)c1nnc(-c2ccccc2)nc1Sc1ccccc1Cl | 66.7% (inactive)
CN(C)CCCN(C(=O)CCSc1ccccc1)c1nc2cc3c(cc2s1)OCO3 | 90.1% (inactive)
COc1cc(-c2coc3c(C(=O)NCc4ccc(OC)c(OC)c4)cccc23)ccc1O | 104% (inactive)
Cn1c(=O)c(N)c2c3c(c(Br)ccc31)C(=O)c1ccccc1-2 | 1.57% (inactive)
CCN1CCN(Cc2ccc(NC(=O)c3cc(NC(=O)C(=O)c4c[nH]c5ccccc45)cc(OC)c3)cc2C(F)(F)F)CC1 | 81.8% (inactive)
CCOC(=O)c1c(CSc2ccccc2)n(C)c2cc(Br)c(O)c(CN(C)C)c12 | 20.5% (inactive)
Cn1cncc1C#Cc1c(-c2ccc(S(C)(=O)=O)cc2)sc2ccccc12 | 102% (inactive)
CN(C)CCC(=O)c1ccc2c(c1)OCO2 | 103% (inactive)
CC(Nc1nc(N2CCNCC2)nc2ccccc12)c1ccccc1 (stereo not given) | 104% (inactive)
